Consider 3 molecules from patent US20210128567A1, “Compositions and Methods for Cognitive, Immune and Digestive Support in Patients with Autism Spectrum Disorder” (FLAASK, LLC, priority 2017, published 2021).

The subject of this experiment is children with confirmed ASD diagnoses. The experiment can be described thus: Outcome of therapies received prior to the subject treatment, as reported by parents. In kind it is in vivo, human.

`CN1c2c(nc(N)[nH]c2=O)NCC1CNc1ccc(C(=O)N[C@@H](CCC(=O)O)C(=O)O)cc1` (stereo partly shown) [5-metylhydrofolate]: where the note is “patient one, given together”, the “result of prior 5-metylhydrofolate and Metylcobalamin B-12” value is on record as “more self-dependence”. Consider `CC(C)[C@H](N)C(=O)OCCOCn1cnc2c(=O)[nH]c(N)nc21` [Valtrex, valacyclovir], for which the “result of prior treatment by Valtrex and Viferon” value (patient one, given together) is “they are getting sick more rarely, learned to swim and to communicate through PECS cards”. Where the note is “patient two”, the “result of prior Valtrex, according to parents the most effective prior therapy” value is “they became more communicative, attempts to speak appeared, became calmer, eye contact has improved”. Consider Metylcobalamin B-12, for which, where the note is “patient one, given together”, the “result of prior 5-metylhydrofolate and Metylcobalamin B-12” value is reported as “more self-dependence”.
